The target of the assay is Histone acetyltransferase KAT6A (UniProt Q92794). Description: KAT6A Biochemical Assay. The source says:
TR-FRET is homogeneous proximity assay where Europium-labelled anti-acetyl lysine antibody binds to the acetylated substrate labelled with biotin which in turn binds to streptavidin labelled APC fluorescence acceptor. Europium can transfer energy to APC in the complex and the interaction of two dye-labelled binding partners is detected by the energy transfer between a donor and an acceptor dye, and the subsequent light emission by the acceptor dye. KAT6A transfer an acetyl group from acetyl CoA to lysine amino acids of histones/target proteins. Typically, 5 μL of human-KAT6A (MYST domain 507-778 aa) in assay buffer (100 mM Tris HCl (pH 7.8), 15 mM NaCl, 1 mM EDTA, 0.01% Tween-20, 0.02% BSA, 1 mM DTT) is added to 384-well plate containing 5 μL of selected test compound in final 1% DMSO, serially diluted in 1:3 in an 8-10-point titration. The selected compound of the present invention and enzyme are incubated for 30 min at room temperature. Next, 5 μL of substrate mix containing histone H4 peptide and acetyl-CoA in assay buffer is added to the plate. The final concentrations of H4 peptide and acetyl-CoA are 200 nM and 600 nM respectively. […] The plate is further incubated for 45 min at room temperature and is read in TR-FRET mode (Ex:340 nm; Em: 615 nm and 665 nm) on a plate reader.

Structures are written as SMILES.

Chain of Histone acetyltransferase KAT6A (Q92794 whole entry, the tested form may be a part): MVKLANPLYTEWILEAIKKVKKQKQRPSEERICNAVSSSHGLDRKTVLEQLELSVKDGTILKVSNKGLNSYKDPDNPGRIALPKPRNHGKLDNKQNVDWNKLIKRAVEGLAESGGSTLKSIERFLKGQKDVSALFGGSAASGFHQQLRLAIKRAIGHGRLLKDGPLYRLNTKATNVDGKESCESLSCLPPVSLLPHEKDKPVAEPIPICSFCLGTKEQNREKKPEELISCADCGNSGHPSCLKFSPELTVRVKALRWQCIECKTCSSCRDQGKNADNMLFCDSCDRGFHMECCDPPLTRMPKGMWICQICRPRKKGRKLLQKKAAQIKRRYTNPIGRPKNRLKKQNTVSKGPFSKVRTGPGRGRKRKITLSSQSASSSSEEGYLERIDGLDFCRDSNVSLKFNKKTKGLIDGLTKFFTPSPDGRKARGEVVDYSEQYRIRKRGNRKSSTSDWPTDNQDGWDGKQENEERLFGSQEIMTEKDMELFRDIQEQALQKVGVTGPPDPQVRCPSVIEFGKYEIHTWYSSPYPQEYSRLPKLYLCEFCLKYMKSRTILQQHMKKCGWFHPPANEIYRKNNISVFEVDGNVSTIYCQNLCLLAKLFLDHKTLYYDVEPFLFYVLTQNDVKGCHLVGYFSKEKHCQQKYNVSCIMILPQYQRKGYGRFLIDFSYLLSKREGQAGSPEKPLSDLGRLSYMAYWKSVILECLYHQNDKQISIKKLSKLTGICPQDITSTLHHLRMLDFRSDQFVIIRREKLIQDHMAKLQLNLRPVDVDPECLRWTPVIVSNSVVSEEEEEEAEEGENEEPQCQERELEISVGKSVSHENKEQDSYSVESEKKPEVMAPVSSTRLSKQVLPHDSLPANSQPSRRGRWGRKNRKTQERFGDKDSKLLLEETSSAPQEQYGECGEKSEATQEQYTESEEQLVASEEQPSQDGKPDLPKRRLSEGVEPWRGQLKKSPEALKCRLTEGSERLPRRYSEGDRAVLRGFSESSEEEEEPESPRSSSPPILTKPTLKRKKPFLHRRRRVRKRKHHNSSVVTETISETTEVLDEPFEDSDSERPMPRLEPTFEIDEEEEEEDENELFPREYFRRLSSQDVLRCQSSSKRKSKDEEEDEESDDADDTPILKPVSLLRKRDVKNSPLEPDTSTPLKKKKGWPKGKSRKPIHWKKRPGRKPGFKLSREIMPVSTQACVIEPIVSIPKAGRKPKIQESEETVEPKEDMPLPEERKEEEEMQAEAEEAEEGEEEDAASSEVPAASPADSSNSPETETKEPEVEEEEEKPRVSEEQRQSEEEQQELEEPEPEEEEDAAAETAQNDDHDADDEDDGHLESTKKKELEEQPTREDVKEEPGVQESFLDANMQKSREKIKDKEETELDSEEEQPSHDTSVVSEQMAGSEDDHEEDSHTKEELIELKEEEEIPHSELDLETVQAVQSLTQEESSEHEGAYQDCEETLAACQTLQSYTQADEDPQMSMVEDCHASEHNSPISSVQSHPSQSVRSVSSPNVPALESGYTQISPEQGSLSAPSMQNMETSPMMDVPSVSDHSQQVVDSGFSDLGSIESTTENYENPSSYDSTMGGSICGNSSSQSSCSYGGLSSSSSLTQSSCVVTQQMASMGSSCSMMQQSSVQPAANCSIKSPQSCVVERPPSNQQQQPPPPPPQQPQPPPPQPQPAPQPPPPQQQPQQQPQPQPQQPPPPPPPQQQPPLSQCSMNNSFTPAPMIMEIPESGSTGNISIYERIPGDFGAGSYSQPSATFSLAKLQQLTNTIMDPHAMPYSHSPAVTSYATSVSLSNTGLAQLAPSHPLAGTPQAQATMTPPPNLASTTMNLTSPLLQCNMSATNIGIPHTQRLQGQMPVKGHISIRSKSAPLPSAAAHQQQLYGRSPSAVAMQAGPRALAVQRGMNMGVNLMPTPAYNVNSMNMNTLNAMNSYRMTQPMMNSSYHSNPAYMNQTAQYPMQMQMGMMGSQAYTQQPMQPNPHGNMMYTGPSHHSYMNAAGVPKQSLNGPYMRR

In turn, `COc1cccc(OC)c1S(=O)(=O)Nc1noc2cc(-c3cscc3C)c3c(c12)OCC3` [US20250059204, Compound 14] yielded an IC50 of 156 nM.

Take `COc1cccc(OC)c1S(=O)(=O)Nc1noc2cc(Cn3cccn3)c3c(c12)OC(C)(C)C3` [US20250059204, Compound 56]: the IC50 turned out to be 43 nM.

Broadly, the IC50 is the midpoint of a concentration-inhibition curve. Low readings indicate greater potency in that assay, high ones weaker potency in that assay.

Values taken from BindingDB's records for patent US20250059204 (Aurigene Oncology, 2025).
